{
  "source": "patent US8614091B2",
  "about": "“PNMT as a novel marker for progenitor cells” (priority 2004, dated 2013)",
  "key": {"[1]": {"tested_on": "Dbh-/- embryos", "settings": "DOPS in the maternal drinking water; cited from earlier work"}, "[2]": {"tested_on": "neonatal rat cardiomyocytes", "assay": "Beating rate measurements in cultured neonatal rat cardiomyocytes", "type": "cell-based", "settings": "for decrease in the beating rate: acute, spontaneously beating cultures after 7 d; for effect on beating rate, acute treatment: increasing concentrations, within seconds to 1-2 min after drug application, normal serum", "description": "D) Preparation of rat neonatal cardiomyocyte cultures. […] The heart was immediately removed under aseptic conditions and placed in ice-cold sterile HBSS (no Ca^++ or Mg^++). Enzymatic and mechanical dissociation of cardiomyocytes was then performed using the Neonatal Cardiomyocyte Isolation System supplied by Worthington Biochemicals (Freehold, N.J., U.S.A.). The hearts were minced on ice and digested overnight at 4° C. with purified trypsin (10 μg/mL) in HBSS. On the following morning, the digested tissue was transferred to a 50-mL conical tube and purified soybean trypsin inhibitor (40 μg/mL) was added to terminate trypsinization. The tissue was oxygenated and warmed to 37° C. […] C. with intermittent gentle swirling. Mild trituration was then used to mechanically dissociate the digested tissue, and single-cell suspensions were obtained by filtering this digested material through 70 μm sterile mesh filters. The cells were collected by low-speed centrifugation. The supernatant was discarded and the cell pellet resuspended in DMEM (high glucose, Biofluids, Rockville, Md., U.S.A.) culture medium containing 10% defined iron-supplemented bovine calf serum (Hyclone Laboratories, Logan, Utah, U.S.A.), 2 mM glutamine, and gentamicin sulfate (50 μg/mL). In some experiments, the serum was pretreated with charcoal before adding it to the media (10% volume as above) to remove possible trace amounts of catecholamines that may have been present The cells were then “preplated” to remove fibroblasts, and the remaining cells counted and seeded onto multi-well culture plates at a density of 75,000 cells per cm^2. The media was changed every 2-3 d beginning the day after seeding. Bromodeoxyuridine (0.1 mM) was added to the culture media for the first 3 d to further minimize contamination from fibroblasts.\nE) Beating rate measurements. Beating activity of cultured cardiomyocytes was measured by edge-detection using photodiode sensors attached to a monitor screen depicting beating cells viewed by videomicroscopy. […] The photodiode sensor signal was filtered with an 8-pole Bessel low-pass filter (Model 900CT, Frequency Devices, Inc., Havervill, Mass., U.S.A.) with a cutoff frequency of 1000 Hz, and relayed to a PC equipped with a National Instruments data acquisition board and LabView 4.0 processing software. Parallel outputs were also directed to a Gould TA550 chart recorder and an oscilloscope. Data were continuously acquired and stored to disk for later analysis. Drugs were added and immediately mixed in the media overlying the cells in each well. Predrug (baseline) measurements were performed first, and the indicated drug(s) were added as a 100× stock to the preexisting media on each well, and rapidly mixed. Beating rates were remeasured within 2-3 min after drug addition.\nF) Data analysis. The number of beating rate measurements was typically obtained from different wells of multi-well plates (usually six wells per plate), seeded from the same preparation of myocytes. Measurements were obtained immediately before and after the addition of specified drugs. In the reserpine experiment, beating rate measurements were obtained at multiple time-points after drug administration. Each experiment was replicated at least twice using independently isolated cultures, and a representative result from each is shown. Unless otherwise indicated, all beating rate measurements were performed on cells that had been cultured for 7-9 d. All data are expressed as mean.+−.SEM. Statistical significance was assessed by one-way ANOVA, with p<0.05 required to reject the null hypothesis. Posthoc testing was performed using Bonferroni's correction for multiple comparisons."}},
  "note": "“Also recorded” adds a separate entry of the source.",
  "data": [
    {"compound": "N[C@H](C(=O)O)[C@H](O)c1ccc(O)c(O)c1", "note": "[DOPS]", "values": [
      {"measurement": "rescue of Dbh-/- embryos that die of cardiovascular failure in utero", "setting": "[1]", "value": "rescued"}
    ]},
    {"compound": "CNC[C@H](O)c1cccc(O)c1", "note": "[L-phenylephrine]", "values": [
      {"measurement": "reversal of prazosin-induced decrease in beating rate", "setting": "[2]; L-phenylephrine at increasing concentrations, in presence of prazosin 1 μM, charcoal-stripped serum", "value": "dose-dependent reversal; also recorded: reversed"}
    ]},
    {"compound": "CNC[C@H](O)c1ccc(O)c(O)c1", "note": "[epinephrine]", "values": [
      {"measurement": "rescue of timolol-suppressed beating rate in charcoal-stripped serum media", "setting": "[2]; epinephrine 1 μM added in presence of timolol 10 μM", "value": "fully rescued; also recorded: full recovery of beating rate"},
      {"measurement": "duration of recovery of beating rate", "setting": "[2]; epinephrine 1 μM in presence of timolol 10 μM, charcoal-stripped serum", "value": "30 to 60", "unit": "min"}
    ]},
    {"compound": "NC[C@H](O)c1ccc(O)c(O)c1", "note": "[norepinephrine]", "values": [
      {"measurement": "reversal of reserpine-induced decrease in beating rate", "setting": "[2]; NE 1 μM, about 2 min after addition, after 8 h of reserpine 2.5 μM", "value": "largely reversed"}
    ]},
    {"compound": "COc1cc2nc(N3CCN(C(=O)c4ccco4)CC3)nc(N)c2cc1OC", "note": "[prazosin]", "values": [
      {"measurement": "decrease in the beating rate", "setting": "[2]; 1 μM prazosin", "value": "~25", "unit": "%"},
      {"measurement": "decrease in the beating rate", "setting": "[2]; 10 μM prazosin", "value": "> 85", "unit": "%"},
      {"measurement": "effect on beating rate, acute treatment", "setting": "[2]", "value": "dose-dependent decreases in the beating rate"},
      {"measurement": "effect on beating rate in media with charcoal-stripped serum", "setting": "[2]; prazosin 1 μM vs baseline control", "value": "significant decreases in beating rates; also recorded: significant reduction in the beating rate"}
    ]},
    {"compound": "COC(=O)[C@H]1[C@H]2C[C@@H]3c4[nH]c5cc(OC)ccc5c4CCN3C[C@H]2C[C@@H](OC(=O)c2cc(OC)c(OC)c(OC)c2)[C@@H]1OC", "note": "[reserpine]", "values": [
      {"measurement": "effect on beating rate, catecholamine depletion", "setting": "[2]; increasing concentrations of reserpine, measured up to 8 h", "value": "Significant dose-dependent decreases in beating rates"}
    ]},
    {"compound": "CC(C)(C)NC[C@H](O)COc1nsnc1N1CCOCC1", "note": "[timolol]", "values": [
      {"measurement": "effect on beating rate, acute treatment", "setting": "[2]", "value": "significant concentration-dependent slowing in the beating rate"},
      {"measurement": "effect on beating activity in media with charcoal-stripped serum", "setting": "[2]; timolol 10 μM, continuous, assessed at 24 and 72 h", "value": "strongly suppressed beating activity"}
    ]}
  ]
}
